Reference: patent US20190137505A1 (THE ARIZONA BOARD OF REGENTS ON BEHALF OF THE UNIVERSITY OF …, priority 2015, published 2019)

What was measured:
glu-Pg = biological target: T1, glu-Pg (Homo sapiens, UniProt P00747); test: Reaction of MG-modified Pg with activating enzymes (STK, tPA, uPA), SDS-PAGE and silver staining; type: biochemical; details: for Pn heavy and light chain bands versus unmodified gel: MG-modified Pg, higher concentration of MG, up to 90 minutes
T1 construct: Glu-Pg, uPA, tPA, fibrinogen, and chromogenic substrate for Pn were purchased from Molecular Innovations (Novi, Mich.); purchased Molecular Innovations (Novi, Mich.)
Method: Physiologically relevant concentrations (Chaplen et al., 1998, Ahmed et al., 2002) of MG were utilized for all LC-MS/MS, silver stain and enzyme inhibition analyses of Pg. glu-Pg (10 μg) was incubated with MG (1-500 μM) at 37° C. for 24 Hrs. Samples for STK assay were further processed before being resolved on a 12% SDS-PAGE gel following removal from 37° C. oven.
Upon removal from the 37° C. oven, Pg was buffer exchanged in a 3-kDa spin-filter (Amicon YM-3; Millipore)) to ensure the removal of MG from the sample. Following centrifugation, the volume of each sample was brought to 150 μL, and divided into five 30 μL samples for different incubations. STK (3U), tPA (100 nM) or uPA (100 nM) was used per sample. STK, tPA or uPA was incubated with Pg for 0, 5, 15, 30, 60, or 90 min. At the conclusion of the enzyme incubation, samples were denatured with 5% BME and heated for 5 minutes at 100° C. on a heat block prior to being resolved on a 12% SDS-PAGE gel.
Gels were stained using a modified version of the method from (Blum et al., 1987). Gel was fixed overnight in a solution of 50% MeOH, 12% glacial acetic acid, and 0.0185% formaldehyde. The gel was washed 2×20 min with 50% EtOH followed by 20 minutes with 30% EtOH. The gel was subjected to a pretreatment solution of 0.2 mg/ml of sodium thiosulfate (Na2S2O3) for 1 minute and was rinsed 3×20 sec with MilliQ H2O. […] Following two 20-second MilliQ H2O washes, the gel was immediately developed with a solution of 60 mg/ml Na2CO3, 4 μg/ml sodium thiosulfate, and 0.0185% formaldehyde until protein bands were visible. Upon acceptable staining progression, the gel was rinsed twice for 2 min with MilliQ H2O before the reaction was stopped with a solution of 50% MeOH and 12% glacial acetic acid. Gel was washed and stored in 50% MeOH. Gel was imaged with a ChemiDoc XRS System (BioRad).

Pg = biological target: T2, Pg (Homo sapiens, UniProt P00747); test: Two-dimensional gel electrophoresis of MG-modified Pg (isoelectric point shift); type: physicochemical; details: 24-hr 500 μM MG; 4-7 pH isoelectric focusing strip
T2 construct: Glu-Pg, uPA, tPA, fibrinogen, and chromogenic substrate for Pn were purchased from Molecular Innovations (Novi, Mich.); purchased Molecular Innovations (Novi, Mich.)
Method: 10 μg Pg was incubated with MG (50-500 μM) in tris-buffered saline (TBS) for 24 hours at 37° C. Following modification, sample volumes were increased to 150 μL and placed in 5 kDa spin filters to reduce volume and remove excess MG from solution.
MG-modified (500 μM) and unmodified Pg control (same incubation conditions without MG) were added to 250 μL amount of rehydration buffer (6M urea, 2M thiourea, 2% CHAPS, 100 mM DTT, 0.5% 3-10 ampholytes) and 5 μL of 3-10 ampholytes (Bio-Rad). Sample rehydrated with a 13 cm 4-7 pH isoelectric focusing strip (GE Healthcare) overnight. Following rehydration, strips were placed in a Bio-Rad PROTEAN IEF Cell focusing instrument. Strips were first focused for 1 hour at 500 V, and then run at a maximum of 8,000V until the strips have reached a final total of 45,000 V/hrs at which point gels are held at 500V until removed. Focused strips were removed, reduced with DTT, cysteines carbamidomethylated with iodoacetamide, and run on a 4-20% gradient Criterion gel for 55 minutes at 200V. Gels were stained for stained according to manufacturer instructions with Imperial Blue Protein (ThermoScientific, Rockford, Ill.) and destained immediately with water. Gel bands were excised and trypsin digested.

T1 sequence (P00747 20-810 limits assumed): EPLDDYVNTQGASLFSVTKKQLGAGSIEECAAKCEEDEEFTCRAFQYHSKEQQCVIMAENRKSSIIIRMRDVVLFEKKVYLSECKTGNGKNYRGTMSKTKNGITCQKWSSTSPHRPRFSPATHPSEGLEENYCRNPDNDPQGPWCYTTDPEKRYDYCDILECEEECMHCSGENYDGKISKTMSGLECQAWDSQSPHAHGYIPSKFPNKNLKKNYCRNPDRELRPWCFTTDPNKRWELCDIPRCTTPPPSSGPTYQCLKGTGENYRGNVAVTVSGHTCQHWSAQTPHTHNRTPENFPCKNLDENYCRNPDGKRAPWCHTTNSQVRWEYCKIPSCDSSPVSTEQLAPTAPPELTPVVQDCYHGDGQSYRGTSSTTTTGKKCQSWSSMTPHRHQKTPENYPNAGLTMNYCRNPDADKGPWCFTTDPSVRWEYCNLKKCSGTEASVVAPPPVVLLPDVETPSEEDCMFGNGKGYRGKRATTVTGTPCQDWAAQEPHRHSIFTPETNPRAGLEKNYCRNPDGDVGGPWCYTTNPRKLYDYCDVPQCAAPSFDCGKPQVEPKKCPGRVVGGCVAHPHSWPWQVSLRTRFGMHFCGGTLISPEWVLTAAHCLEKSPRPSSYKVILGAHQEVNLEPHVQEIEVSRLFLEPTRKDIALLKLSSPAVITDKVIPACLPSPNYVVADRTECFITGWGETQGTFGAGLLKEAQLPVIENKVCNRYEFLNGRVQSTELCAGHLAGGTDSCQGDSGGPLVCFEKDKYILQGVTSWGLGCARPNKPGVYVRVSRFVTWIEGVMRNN
T2 sequence (P00747 20-810 limits assumed): as above

## CC(=O)C=O [MG, Methylglyoxal]
glu-Pg; 24-hr 100 μM MG-modified glu-Pg, STK 0 to 60 min
  Activation of Pg by STK (cleavage products on silver-stained gel): inhibited
glu-Pg; tPA
  Pn heavy and light chain bands versus unmodified gel: lesser amounts
glu-Pg; uPA
  Pn heavy and light chain bands versus unmodified gel: lesser amounts
Pg
  pI of MG-modified Pg: 5.8-6.7
